Source: PMC2248166, “Quantitative peptide binding motifs for 19 human and mouse MHC class I molecules derived using positional scanning combinatorial peptide libraries” (Immunome Research, 2008)
Where a SMILES comes first, the peptide text is derived from it.

These compounds were tested against HLA B*0801 (Homo sapiens, UniProt P01889, A93T/A95T/D138N/E176V/E187T/K202T/Q94N/R180D/S35A/V36M/Y33D/Y91F) (assay: biochemical).
Format: binding

Row | Compound | IC50 [nM]
1 | N=C(N)NCCC[C@H](NC(=O)[C@H](Cc1ccc(O)cc1)NC(=O)[C@H](CCCNC(=N)N)NC(=O)[C@H](CCCNC(=N)N)NC(=O)[C@H](CO)NC(=O)[C@@H](N)CO)C(=O)N[C@@H](CS)C(=O)N[C@@H](CO)C(=O)N[C@@H](Cc1ccccc1)C(=O)O [3102.1158] (H-SSRRYRCSF-OH) | 12
2 | CC[C@H](C)[C@H](NC(=O)[C@H](Cc1ccc(O)cc1)NC(=O)[C@H](C)NC(=O)[C@@H]1CCCN1C(=O)[C@@H](N)CCSC)C(=O)N[C@@H](CCCNC(=N)N)C(=O)N[C@@H](CC(N)=O)C(=O)N[C@H](C(=O)N[C@@H](CC(C)C)C(=O)O)[C@@H](C)O [3102.0553] | 1.4
3 | CC(C)C[C@H](NC(=O)[C@@H]1CCCN1C(=O)[C@@H](N)CO)C(=O)N[C@@H](CO)C(=O)N[C@@H](CCCCN)C(=O)N[C@@H](CS)C(=O)N[C@H](C(=O)N[C@H](C(=O)N[C@H](C(=O)O)C(C)C)C(C)C)C(C)C [3102.0613] (H-SPLSKCVVV-OH) | 31
4 | CC(C)C[C@H](NC(=O)[C@@H](NC(=O)[C@H](CCCCN)NC(=O)[C@H](Cc1ccccc1)NC(=O)[C@H](CCCCN)NC(=O)[C@@H](NC(=O)[C@H](CC(N)=O)NC(=O)[C@H](CC(C)C)NC(=O)[C@@H](N)CO)[C@@H](C)O)[C@@H](C)O)C(=O)O [3102.0746] (H-SLNTKFKTL-OH) | 8.7
5 | CC[C@H](C)[C@H](NC(=O)[C@@H](N)CCCNC(=N)N)C(=O)N[C@@H](CC(C)C)C(=O)N[C@@H](Cc1ccccc1)C(=O)N[C@@H](CCCNC(=N)N)C(=O)N[C@@H](CCCCN)C(=O)N1CCC[C@H]1C(=O)N[C@@H](CO)C(=O)N[C@@H](CC(C)C)C(=O)O [3102.0787] (H-RILFRKPSL-OH) | 32
6 | CC[C@H](C)[C@H](NC(=O)[C@H](CC(N)=O)NC(=O)[C@H](CC(C)C)NC(=O)[C@H](CCCCN)NC(=O)[C@H](CC(N)=O)NC(=O)[C@H](CCSC)NC(=O)[C@@H](NC(=O)[C@@H](N)CC(N)=O)[C@@H](C)CC)C(=O)N[C@H](C(=O)O)C(C)C [3102.0721] (H-NIMNKLNIV-OH) | 5.7
7 | CC[C@H](C)[C@H](N)C(=O)N[C@@H](CO)C(=O)N[C@@H](CCC(=O)O)C(=O)N[C@@H](CO)C(=O)N[C@@H](CCCNC(=N)N)C(=O)N[C@@H](Cc1ccccc1)C(=O)N[C@@H](CCC(N)=O)C(=O)N[C@@H](CO)C(=O)N[C@@H](CC(C)C)C(=O)O [3102.0767] (H-ISESRFQSL-OH) | 40
8 | CC[C@H](C)[C@H](NC(=O)[C@H](Cc1ccccc1)NC(=O)[C@H](CCCCN)NC(=O)[C@@H](NC(=O)[C@@H](N)Cc1ccc(O)cc1)[C@@H](C)CC)C(=O)N[C@@H](Cc1ccccc1)C(=O)N[C@@H](CC(C)C)C(=O)N[C@@H](CCC(N)=O)C(=O)N[C@@H](CCSC)C(=O)O [3102.0918] (H-YIKFIFLQM-OH) | 8.6
9 | CC[C@H](C)[C@H](NC(=O)[C@H](CC(=O)O)NC(=O)[C@H](CC(C)C)NC(=O)[C@@H]1CCCN1C(=O)[C@H](CCCCN)NC(=O)[C@H](CC(C)C)NC(=O)[C@H](CCCNC(=N)N)NC(=O)[C@H](C)NC(=O)[C@@H](N)CC(N)=O)C(=O)O [3102.0711] (H-NARLKPLDI-OH) | 0.81
10 | CC[C@H](C)[C@H](NC(=O)[C@H](CCC(N)=O)NC(=O)[C@H](CCC(=O)O)NC(=O)[C@H](CCC(N)=O)NC(=O)[C@H](CCCNC(=N)N)NC(=O)[C@H](CCCNC(=N)N)NC(=O)[C@H](CCSC)NC(=O)CNC(=O)[C@@H](N)CO)C(=O)O [3102.0733] (H-SGMRRQEQI-OH) | 17
11 | CC(C)C[C@H](NC(=O)[C@H](CCCNC(=N)N)NC(=O)[C@H](Cc1c[nH]cn1)NC(=O)[C@H](CC(C)C)NC(=O)[C@H](Cc1ccc(O)cc1)NC(=O)[C@H](CCCNC(=N)N)NC(=O)[C@H](CCCNC(=N)N)NC(=O)[C@@H]1CCCN1C(=O)[C@@H](N)CS)C(=O)O [3102.0755] (H-CPRRYLHRL-OH) | 2.7
12 | CC(C)C[C@H](NC(=O)[C@@H](N)Cc1c[nH]cn1)C(=O)N[C@@H](CCCCN)C(=O)N[C@@H](Cc1c[nH]cn1)C(=O)N[C@@H](Cc1c[nH]cn1)C(=O)N[C@@H](CCCCN)C(=O)N[C@@H](CCC(N)=O)C(=O)N[C@@H](CS)C(=O)N[C@H](C(=O)O)C(C)C [3102.0763] (H-HLKHHKQCV-OH) | 4.5
13 | CC[C@H](C)[C@H](NC(=O)[C@H](CCCCN)NC(=O)[C@@H](NC(=O)[C@H](CCCNC(=N)N)NC(=O)[C@H](CC(C)C)NC(=O)[C@@H](N)C(C)C)[C@@H](C)O)C(=O)N[C@H](C(=O)N[C@@H](CO)C(=O)N[C@@H](CC(C)C)C(=O)O)[C@@H](C)O [3102.0709] (H-VLRTKITSL-OH) | 0.92
14 | CC[C@H](C)[C@H](NC(=O)[C@H](Cc1c[nH]cn1)NC(=O)[C@H](Cc1ccccc1)NC(=O)[C@H](CCCCN)NC(=O)[C@H](CC(C)C)NC(=O)[C@H](CCCNC(=N)N)NC(=O)[C@H](CS)NC(=O)[C@@H](N)Cc1c[nH]c2ccccc12)C(=O)N[C@H](C(=O)O)C(C)C [3102.0584] (H-WCRLKFHIV-OH) | 82
15 | CC[C@H](C)[C@H](N)C(=O)N[C@@H](CCSC)C(=O)N[C@@H](CCCNC(=N)N)C(=O)N[C@@H](CCSC)C(=O)N[C@@H](CCCNC(=N)N)C(=O)N[C@@H](Cc1ccccc1)C(=O)N[C@@H](CCCCN)C(=O)N[C@@H](CCCCN)C(=O)NCC(=O)O [3102.0777] (H-IMRMRFKKG-OH) | 62
16 | CC[C@H](C)[C@H](NC(=O)[C@H](Cc1ccc(O)cc1)NC(=O)[C@H](C)NC(=O)[C@H](Cc1ccccc1)NC(=O)[C@H](Cc1ccc(O)cc1)NC(=O)[C@H](Cc1ccc(O)cc1)NC(=O)[C@H](CCCNC(=N)N)NC(=O)[C@H](CCC(=O)O)NC(=O)CN)C(=O)O [3102.0936] (H-GERYYFAYI-OH) | 6.9
17 | CC[C@H](C)[C@H](NC(=O)[C@H](Cc1c[nH]cn1)NC(=O)[C@H](Cc1ccccc1)NC(=O)[C@H](CC(C)C)NC(=O)[C@H](CC(N)=O)NC(=O)[C@@H]1CCCN1C(=O)[C@H](CC(C)C)NC(=O)[C@@H](N)CCCNC(=N)N)C(=O)N[C@@H](CC(C)C)C(=O)O [3102.0632] (H-RLPNLFHIL-OH) | 69
18 | CSCC[C@H](NC(=O)[C@H](CC(C)C)NC(=O)[C@@H](N)CCSC)C(=O)N[C@@H](CCC(=O)O)C(=O)N[C@H](C(=O)N[C@@H](Cc1ccccc1)C(=O)N1CCC[C@H]1C(=O)N[C@@H](CCC(N)=O)C(=O)N[C@@H](CC(C)C)C(=O)O)C(C)C [3102.0725] (H-MLMEVFPQL-OH) | 13
19 | CC(C)C[C@H](NC(=O)[C@H](CCCCN)NC(=O)[C@H](CCCNC(=N)N)NC(=O)[C@@H](N)CCCNC(=N)N)C(=O)N[C@@H](CC(C)C)C(=O)N[C@@H](CCCNC(=N)N)C(=O)N[C@@H](CCCNC(=N)N)C(=O)N1CCC[C@H]1C(=O)N[C@@H](Cc1ccccc1)C(=O)O [3102.0530] (H-RRKLLRRPF-OH) | 11
20 | CC(C)C[C@H](NC(=O)[C@H](CO)NC(=O)[C@@H]1CCCN1C(=O)[C@H](CCCNC(=N)N)NC(=O)[C@H](CCCCN)NC(=O)[C@H](CO)NC(=O)[C@H](CC(C)C)NC(=O)[C@H](CC(C)C)NC(=O)[C@@H](N)C(C)C)C(=O)O [3102.0634] (H-VLLSKRPSL-OH) | 78
21 | CC[C@H](C)[C@H](NC(=O)[C@H](Cc1c[nH]cn1)NC(=O)[C@@H](NC(=O)[C@@H](N)CCSC)C(C)C)C(=O)N[C@@H](Cc1ccc(O)cc1)C(=O)N[C@@H](Cc1ccccc1)C(=O)N[C@H](C(=O)N[C@@H](CO)C(=O)N[C@@H](CC(C)C)C(=O)O)C(C)C [3102.0878] (H-MVHIYFVSL-OH) | 1.4
22 | CC[C@H](C)[C@H](NC(=O)[C@H](CCCNC(=N)N)NC(=O)[C@H](CCCCN)NC(=O)[C@H](CCSC)NC(=O)[C@@H](NC(=O)[C@@H](N)CC(N)=O)C(C)C)C(=O)N[C@@H](CC(N)=O)C(=O)N[C@@H](CS)C(=O)N[C@@H](Cc1ccccc1)C(=O)O [3102.0558] (H-NVMKRINCF-OH) | 20
23 | CSCC[C@H](NC(=O)[C@H](CC(N)=O)NC(=O)[C@H](Cc1ccccc1)NC(=O)[C@H](Cc1ccccc1)NC(=O)[C@H](CCCNC(=N)N)NC(=O)[C@H](CO)NC(=O)[C@H](CC(C)C)NC(=O)[C@H](CC(C)C)NC(=O)[C@H](C)N)C(=O)O [3102.0744] (H-ALLSRFFNM-OH) | 3
24 | CC(C)C[C@H](NC(=O)[C@H](CO)NC(=O)[C@@H](NC(=O)[C@H](CC(C)C)NC(=O)[C@H](CO)NC(=O)[C@H](CCC(N)=O)NC(=O)[C@H](CCCCN)NC(=O)[C@H](CC(N)=O)NC(=O)[C@@H](N)Cc1ccc(O)cc1)C(C)C)C(=O)O [3102.0646] (H-YNKQSLVSL-OH) | 30
25 | CC(C)C[C@H](NC(=O)[C@H](CO)NC(=O)CNC(=O)[C@H](Cc1ccc(O)cc1)NC(=O)[C@H](CCCCN)NC(=O)[C@H](Cc1c[nH]cn1)NC(=O)[C@H](CCCCN)NC(=O)[C@H](CC(C)C)NC(=O)[C@@H](N)Cc1ccccc1)C(=O)O [3102.0617] (H-FLKHKYGSL-OH) | 0.14
26 | CSCC[C@H](NC(=O)[C@H](CCC(N)=O)NC(=O)[C@H](CCCCN)NC(=O)[C@@H](NC(=O)[C@H](CCC(N)=O)NC(=O)[C@@H]1CCCN1C(=O)[C@@H](N)CC(N)=O)[C@@H](C)O)C(=O)N[C@@H](C)C(=O)N[C@@H](Cc1ccccc1)C(=O)O [3102.0698] (H-NPQTKQMAF-OH) | 14
27 | CC(C)C[C@H](NC(=O)[C@H](CC(N)=O)NC(=O)[C@@H](NC(=O)[C@H](CC(C)C)NC(=O)[C@H](CCCNC(=N)N)NC(=O)[C@H](CCC(N)=O)NC(=O)[C@H](CCCCN)NC(=O)[C@H](CC(C)C)NC(=O)[C@@H](N)[C@@H](C)O)[C@@H](C)O)C(=O)O [3102.0747] (H-TLKQRLTNL-OH) | 1.7
28 | CC[C@H](C)[C@H](NC(=O)[C@@H](NC(=O)[C@H](CCC(N)=O)NC(=O)[C@H](CCCNC(=N)N)NC(=O)[C@H](CCCCN)NC(=O)[C@H](Cc1ccccc1)NC(=O)[C@H](CO)NC(=O)[C@@H]1CCCN1C(=O)[C@@H](N)CC(N)=O)[C@@H](C)CC)C(=O)O [3102.0704] (H-NPSFKRQII-OH) | 20
29 | CC[C@H](C)[C@H](NC(=O)[C@H](CO)NC(=O)[C@@H](NC(=O)[C@@H](NC(=O)[C@H](Cc1c[nH]c2ccccc12)NC(=O)[C@H](CCCCN)NC(=O)[C@H](CCSC)NC(=O)[C@@H](N)CCSC)[C@@H](C)CC)[C@@H](C)CC)C(=O)N[C@@H](CC(C)C)C(=O)O [3102.0616] (H-MMKWIISIL-OH) | 1.3
